In patent US20240166703A1, “ANTI-INFLAMMATORY PEPTIDE AND METHOD OF USE THEREOF” (The Regents of the University of California, priority 2021, published 2024):

Legend:
[1] = test system: B- and T-cell proliferation; conditions: cited from earlier work
BMDM cells = experiment: Quantitation of cytokines in supernatant of cultured BMDM cells (toxicity); type: cell-based, C57BL/6J mice; conditions: 100 μM, 24 hours, without stimulating the cells
Experimental: With the approval of the UCSD and Veteran Affairs San Diego Institutional Animal Care and Use Committees (IACUC), bone marrow-derived macrophage (BMDM) cells were isolated from 6-8 weeks old C57BL/6J mice (Jackson Laboratory) followed by erythrocyte lysis with ammonium chloride, and then seeded in 12-well plates at a concentration of 1×10^6 cells/mL. Cultured cells were differentiated to macrophages with culture media containing monocyte-colony stimulating factor (M-CSF; 10 ng/mL). After 7 days of differentiation, BMDM cells were treated with TNF-α (10 ng/mL) or LPS ([…]) with or without TAT-NEMO^ActPep, TAT-NEMO^ActPep6G, or MLN120B.
BMDM cels were pre-incubated with or without 100 μM TAT-NEMO^ActPep or MLN120B for 24 hours. Negative control cells were treated with 1×PBS or DMSO at the same concentrations as those present in either TAT-NEMO^ActPep or MLN120B, respectively. IL-1β and TNF-α levels were measured from 20 μL supernatant of cultured BMDM cells using U-PLEX mouse cytokine assay kit (Meso Scale Diagnostics) following the manufacturer's protocol. […] Experiments were performed in triplicate.
Further, the potentially toxic effects of a high concentration (100 μM) dose of NEMO^ActPep were tested on IL-1β production in BMDMs without stimulating the cells. […]

mice = conditions: mouse, in vivo; cited from earlier work

In the case of `COc1c(Cl)cc2c([nH]c3cnccc32)c1NC(=O)c1cccnc1C` [MLN120B], the “B- and T-cell proliferation” value [1] is listed as “block B- and T-cell proliferation”, the “TNF-α expression / basal levels in BMDM supernatant” value (BMDM cells) is listed as “reduced basal levels of TNF-α” and the “production of IL-1β in BMDM supernatant” value (BMDM cells) is listed as “significantly induced production of mature IL-1β”. For the same compound, the neutrophilia in mice (mice) was “promote neutrophilia” and the “septic shock in mice” value (mice) was “cause septic shock”.
